Data reported in patent US20240374681A1, “Formulation for Co-Administration of Q-GRFT and Tenofovir” (priority 2021, published 2024).

Key:
[1] = Q-GRFT content determination by HPLC (incl. stability study); type: physicochemical; settings: molar ratios 3, 6, 12 to Q-GRFT monomer, 40° C./75% RH for 3 months
Description: Stability Study Procedure: Individual enema bottles containing 125 ml of solution were stored under three conditions (4° C.; 25° C./60% RH; 40° C./75% RH) and monitored over time (24 months for 4° C. and 25° C./60% RH; 6 months for 40°° C./75% RH). At each time point (1, 2, 3, 6, 9, 12, 18, and 24 months), physicochemical characteristics were evaluated and compared against the critical quality assessments (CQAs) according to the following procedures.
(§1) Q-GRFT Content Determination by High-Performance Liquid Chromatography: The High-Performance Liquid Chromatography (HPLC) method for measuring Q-GRFT content was previously developed and reported elsewhere. The samples were diluted 2 times with Milli-Q water. The Q-GRFT content was detected by an HPLC system (Waters Corporation, Milford, MA) equipped with an auto-injector (model 717), a quaternary pump (model 600), and a photodiode array detector (model 2996)) with a C5 column (Jupiter 5 μm 300 Å, 250×4.6 mm) and a C5 pre-column (Security Guard Standard Widepore).
Lyophilization: For samples with cryoprotectants, sugar/sugar polyol powders were weighed and added in individual scintillation vials. The Q-GRFT stock solution was then added. The sample vials were mixed until the powder dissolved. Next, the vials containing sample solution (with or without the addition of cryoprotectants) were transferred to a −80° C. freezer to freeze overnight. Until lyophilization, the samples were tilted and placed in the beaker, attached to a pre-set lyophilizer (Labconco FreeZone Freeze Dry System, Kansas City, MO). The lyophilizing process was set to maintain the environment at −50° C. and 0.070 mBar. Sample vials were measured for their weights after lyophilizing for at least two days. Once the weights were stable, indicating no more water was removed, the lyophilized powder was taken out of the vials and ground with a mortar and pestle. The lyophilized powder would be packed in a tube at 4° C. (unless other conditions were indicated) until further characterizations.
as §1, with “Chromatography (HPLC):” for “Chromatography:”, “HPLC” for “High-Performance Liquid Chromatography (HPLC)”, “measuring the” for “measuring”, “was” for “was previously”, “developed in-house” for “developed”, “previously.” for “elsewhere.”

[2] = pH measurement of enema formulations / reconstituted solutions (pH meter); type: physicochemical; settings: stock solution in 1× PBS
Description: To investigate if the vehicle strength impacts the pH and osmolality of formulations, PBS-base was used directly (1× PBS) or diluted (50% PBS) with or without the addition of TFV and Q-GRFT. To study if the vehicle composition impacts the pH and osmolality of formulations, PBS-base and saline-base were used directly (1× PBS; 1× saline) with the addition of TFV and Q-GRFT. Three formulations (50% PBS, 1× PBS, 1× saline; all with the addition of TFV and Q-GRFT) were chosen to further evaluate the effects of pH adjusting agents on osmolality. For the final screening, both vehicles (PBS-base and saline-base) were diluted into three strengths, 30%, 35%, and 40% with the addition of TFV and Q-GRFT. pH and osmolality were measured as in-line checkpoints for screening and quality assurance.
Manufacturing Procedure: Stock buffer (10× PBS or Saline) was diluted with Milli-Q water to a solution with lower osmolality than desired (˜40 mOsm/kg lower). […] Finally, Q-GRFT stock solution (in 1× PBS) was measured and added to the solution to make the final product. […]
pH: The pH was determined using a pH meter (XL150 pH Benchtop Meters, Fisher Scientific). […]
pH: The pH was determined by a pH meter (XL150 pH Benchtop Meters, Thermo Fisher Scientific; Waltham, MA). […] The pH was recorded only after the value stayed stable.

HIV-1 gp120CM = assay: gp120 binding bioactivity by ELISA
Description: Bioactivity Determination using Enzyme-linked Immunosorbent Assay (ELISA): An ELISA was applied to evaluate the gp120 binding activity of select Q-GRFT samples. Nunc MaxiSorp 96-well plates were used for this experiment. The MaxiSorp surface is a hydrophilic/hydrophobic mix that binds to a wide range of biomolecules. In short, gp120 was bound to the wells of a 96-well plate overnight at 4° C. The HIV-1 gp120CM was purchased from Kentucky Bioprocessing (KBP; Part #C-1312). After overnight incubation, the solution of gp120 was removed, and a blocking solution (1× PBS-T [PBS with 0.05% Tween 20]) was applied for two hours at room temperature. After that, the wells were washed and incubated with various dilutions of Q-GRFT samples for one hour. Gp120 binding was detected by applying goat anti-Q-GRFT primary antibody (one-hour incubation) and HRP-labeled rabbit anti-goat secondary antibody (one-hour incubation), sequentially. […] Gp120 binding was measured at 450 nm.
Bioactivity Determination by Enzyme-linked Immunosorbent Assay (ELISA): An ELISA was adapted and applied to evaluate the gp120 binding activity of the Q-GRFT samples. […] Gp120 binding was detected by applying goat anti-Q-GRFT primary antibody (one-hour incubation) and HRP-labeled rabbit anti-goat secondary antibody (one-hour incubation), sequentially. […] Gp120 binding was measured at 450 nm with a plate reader.

human colon tissue = assay: Ex vivo human colon tissue permeability of Q-GRFT in Ussing chamber; settings: all time points, LLOQ of the HPLC method
Description: Permeability and Toxicity Assessment with the Ex Vivo Human Colon Tissue: Tissue specimens were collected from patients 18-75 years old. A section of each tissue was retained for histological evaluation with hematoxylin and eosin (H&E) staining assay. After removal of the excess stromal tissue, the epithelial tissue was placed between the donor and receptor compartments of the Ussing chamber apparatus with the epithelial side toward the donor compartment. This set-up was maintained at 37° C. throughout the experiment. Both donor and receptor compartments were filled with KRBG during system calibration. Then the KRBG buffer from the donor sides was replaced with sample solutions. 50 μL was removed from the donor compartment at the beginning and the end of the experiments. At predetermined time points (Time 0, 15, 30, 45, 60, 75, 90, 120 minutes), 200 μL was removed from the receptor chamber and the same volume of fresh KRBG was added for replacement. These samples were held at 4° C. until analyzed by UPLC (for TFV) or HPLC (for Q-GRFT). The Papp values were calculated using Equation 1 as described above. All tissues, including pre-treatment and post-treatment tissues from all groups, were processed for paraffin sectioning. The tissue sections were embedded into paraffin blocks using the Leica EG 1160 embedding station. […]

[3] = system: Caco-2 monolayer cell model; assay: Caco-2 monolayer permeability of paracellular marker [^14C]-Mannitol
Description: Caco-2 Monolayer Cell Model Permeability Study Procedure: The procedure was adapted from a previously reported method to build a Caco-2 monolayer cell model and perform the permeability studies. Cell passages 34 to 42 were used to build the model in different batches. For preparation, a total of 3×10^5 Caco-2 cells were dispensed on the apical side of each Transwell filter. The model would be ready after 21-29 days of culture. The model was validated with a paracellular marker, [^14C]-Mannitol. […] To study the permeability, the sample solution was gently dispensed on the apical side of the model and cultured at 37° C. for 2 hours. […] The apparent permeability coefficients (Papp) were calculated using Equation 1, below.
[formula] [formula] • Papp (cm/sec): the apparent permeability coefficient;
(ng/sec): the rate of drug transportation; A (cm^2): the surface area of the cell layers; C0 (ng/ml): The initial drug concentration in the donor side.

[4] = system: Caco-2 monolayer cell model; settings: reported literature value; cited from earlier work
[5] = system: Caco-2 monolayer cell model; settings: 2-hour treatment, threshold 165 Ω*cm^2
Description: Caco-2 Monolayer Cell Model Toxicity Study Procedure: Passages 33 to 43 of the Caco-2 cell line were used in the studies. The Caco-2 cells were cultured in complete Dulbecco's modified Eagle's medium (DMEM) [500 ml of DMEM (Corning) containing 50 ml fetal bovine serum (FBS; Gibco Qualified One-Shot, Thermo Scientific) and 5 ml PEST (penicillin 10,000 U/ml-streptomycin, 10,000 ug/ml-glutamine 29.2 mg/ml solution (100×); Gibco, Fisher Scientific)] at 37° C. with 5% CO2 incubation. […] After overnight incubation, the samples were added to the wells and treated for 24 hours. […] A toxicity study utilizing the Caco-2 model was performed prior to permeability studies to examine the safety of the complete liquid formulations. Samples were applied on the apical side of the Transwell. After 2-hour treatments, the treated samples were discarded and washed off twice with HBSS. […] TEER values were also measured before and after the treatments as supplemental criteria for the toxicity study.

OC[C@H]1O[C@H](O[C@H]2O[C@H](CO)[C@@H](O)[C@H](O)[C@H]2O)[C@H](O)[C@@H](O)[C@@H]1O [trehalose]
Cryoprotecting effect on Q-GRFT content of lyophilized powder [1]: concentration-independent protection

Q-GRFT: engineered form of griffithsin with increased stability against oxidation; stock solution in 1× PBS
pH of Q-GRFT stock solution [2]: around 7.39 | EC50 gp120 binding (ELISA) (HIV-1 gp120CM; after lyophilization and reconstitution, Example 2 (FIG. 18)): 7.02 ng/mL | EC50 gp120 binding (ELISA) (HIV-1 gp120CM; reference solution, Example 1 (FIG. 11)): 11.70 ng/mL | Q-GRFT content from the receptor sides (human colon tissue): < 1 µg/mL

OC[C@H]1O[C@@](CO)(O[C@H]2O[C@H](CO)[C@@H](O)[C@H](O)[C@H]2O)[C@@H](O)[C@@H]1O [sucrose]
Cryoprotecting effect on Q-GRFT content of lyophilized powder [1]: concentration-dependent protection

OC[C@@H](O)[C@@H](O[C@H]1O[C@H](CO)[C@@H](O)[C@H](O)[C@H]1O)[C@H](O)[C@@H](O)CO [maltitol]
Cryoprotecting effect on Q-GRFT content of lyophilized powder [1]: concentration-dependent protection

OCC(O)C(O)C(O)C(O)[14CH2]O (stereo not drawn) [[^14C]-Mannitol]
Papp of [^14C]-Mannitol (model validation) ([3]; tested using this Caco-2 monolayer cell model): 0.33 ×10⁻⁶ cm/s | Papp of [^14C]-Mannitol, reported value [4]: 0.12 ×10⁻⁶ cm/s

C=O [formaldehyde]
TEER value after treatment [5]: < 165 Ω*cm^2

OC[C@@H](O)[C@@H](O[C@@H]1O[C@H](CO)[C@H](O)[C@H](O)[C@H]1O)[C@H](O)[C@@H](O)CO [lactitol]
Cryoprotecting effect on Q-GRFT content of lyophilized powder [1]: no protection

CCCCCCCCCCCCOS(=O)(=O)[O-].[Na+] [20% SDS (positive control)]
Paracellular marker [^14C]-Mannitol: Papp ([3]; Caco-2): 30 ± 1 ×10⁻⁶ cm/s
